Assay results: ChEMBL document CHEMBL3351952, “The antimicrobial activity of mono-, bis-, tris-, and tetracationic amphiphiles derived from simple polyamine platforms” (2014)

How the values were obtained:
Assay type in all cases: functional
Escherichia coli = experiment: Antimicrobial activity against Escherichia coli MC4100 after 72 hrs by broth microdilution method; settings: MC4100, 72 h
Staphylococcus aureus = experiment: Antimicrobial activity against Staphylococcus aureus SH1000 after 72 hrs by broth microdilution method; settings: SH1000, 72 h
Enterococcus faecalis = experiment: Antimicrobial activity against Enterococcus faecalis OG1RF after 72 hrs by broth microdilution method
Pseudomonas aeruginosa = experiment: Antimicrobial activity against wild-type Pseudomonas aeruginosa PAO1 after 72 hrs by broth microdilution method; settings: PAO1, 72 h

Compound | MIC (Escherichia coli) | MIC (Staphylococcus aureus) | MIC (Enterococcus faecalis) | MIC (Pseudomonas aeruginosa)
CCCCCCCCCCC[N+](C)(C)CCN(C)CC[N+](C)(C)CCCCCCCCCCC | 2 µM | 2 µM | 2 µM | 8 µM
CCCCCCCCCCCCCC[N+](C)(C)CCCCC[N+](C)(C)CCCCCCCCCCCCCC | 4 µM | 1 µM | 1 µM | 16 µM
CCCCCCCCCCCCCC[N+](C)(C)CCN(C)CCN(C)CC[N+](C)(C)CCCCCCCCCCCCCC | 2 µM | 2 µM | 1 µM | 16 µM
CCCCCCCCCCCC[N+](C)(C)CCN(C)CC[N+](C)(C)CCCCCCCCCCCC | 2 µM | 1 µM | 1 µM | 4 µM
CCCCCCCCCCCCCC[N+](C)(C)CCN(C)CC[N+](C)(C)CCCCCCCCCCCCCC | 4 µM | 2 µM | 1 µM | 16 µM
C=CC[N+](C)(CCC[N+](C)(C)CCCCCCCCCCCC)CCC[N+](C)(C)CCCCCCCCCCCC | 2 µM | 1 µM | 2 µM | 4 µM
CCCCCCCCCCCC[N+](C)(C)CCC[N+](C)(C)CCC[N+](C)(C)CCCCCCCCCCCC | 2 µM | 1 µM | 2 µM | 8 µM
CCCCCCCCCCC[N+](C)(C)CC[N+](C)(C)CC[N+](C)(C)CCCCCCCCCCC | 4 µM | 2 µM | 2 µM | 8 µM
CCCCCCCCCCCC[N+](C)(C)CCC[N+](C)(CCC[N+](C)(C)CCCCCCCCCCCC)Cc1ccc(CCCCCCCC)cc1 | 1 µM | 1 µM | 1 µM | 4 µM
C=CC[N+](C)(CC[N+](C)(C)CCCCCCCCCCC)CC[N+](C)(C)CCCCCCCCCCC | 2 µM | 1 µM | 2 µM | 16 µM
CCCCCCCCCC[N+](C)(C)CCN(C)CC[N+](C)(C)CCCCCCCCCC | 8 µM | 2 µM | 8 µM | 63 µM
C=CC[N+](C)(CC[N+](C)(C)CCCCCCCCCCCCCCCC)CC[N+](C)(C)CCCCCCCCCCCCCCCC | 8 µM | 4 µM | 4 µM | 16 µM
CCCCCCCCCCCC[N+](C)(C)CC[N+](C)(C)CC[N+](C)(C)CCCCCCCCCCCC | 0.5 µM | ≤ 60.2 µM | ≤ 60.2 µM | 1 µM
C=CC[N+](C)(CC[N+](C)(C)CCCCCCCCCCCCCC)CC[N+](C)(C)CCCCCCCCCCCCCC | 2 µM | 2 µM | 2 µM | 8 µM

The remaining compounds from weak to strong by MIC (Escherichia coli), led by results:

MIC (Escherichia coli) | MIC (Staphylococcus aureus) | MIC (Enterococcus faecalis) | MIC (Pseudomonas aeruginosa) | Compound
32 µM | 8 µM | 8 µM | 63 µM | CCCCCCCCCCCC[N+](C)(C)Cc1ccccc1 [BENZODODECINIUM CHLORIDE]
32 µM | 16 µM | 16 µM | 125 µM | CCCCCCCCCCCCCC[N+](C)(C)CCN(C)CCN(C)CCN(C)C
16 µM | 2 µM | 2 µM | 32 µM | CCCCCCCCCCCCCCCC[N+](C)(C)CCCCC[N+](C)(C)CCCCCCCCCCCCCCCC
16 µM | 4 µM | 2 µM | 32 µM | CCCCCCCCCCCCCCCC[N+](C)(C)CCN(C)CC[N+](C)(C)CCCCCCCCCCCCCCCC
8 µM | 8 µM | 8 µM | 32 µM | CCCCCCCCCCCC[N+](C)(C)CCN(C)CCN(C)CCN(C)C
8 µM | 2 µM | 8 µM | 63 µM | CCCCCCCCCC[N+](C)(C)CC[N+](C)(C)CC[N+](C)(C)CCCCCCCCCC
8 µM | 2 µM | 4 µM | 63 µM | CCCCCCCCCC[N+](C)(C)CCCCC[N+](C)(C)CCCCCCCCCC
2 µM | 2 µM | 4 µM | 63 µM | C=CC[N+](C)(CC[N+](C)(C)CCCCCCCCCC)CC[N+](C)(C)CCCCCCCCCC
2 µM | 1 µM | 1 µM | 8 µM | CCCCCCCCCCCC[N+](C)(C)CCCCCCC[N+](C)(C)CCCCCCCCCCCC
2 µM | 1 µM | 1 µM | 8 µM | CCCCCCCCCCCCCC[N+](C)(C)CC[N+](C)(C)CC[N+](C)(C)CCCCCCCCCCCCCC
2 µM | 1 µM | 1 µM | 8 µM | CCCCCCCCCCCCCC[N+](C)(C)CCN(C)CCN(C)CC[N+](C)(C)CCCCCCCCCCCC
2 µM | 2 µM | 2 µM | 4 µM | C=CC[N+](C)(CC[N+](C)(C)CCCCCCCCCCCC)CC[N+](C)(C)CCCCCCCCCCCC
1 µM | 0.5 µM | 1 µM | 4 µM | CCCCCCCCCCCC[N+](C)(C)CCC[N+](C)(CCCCCCCCCCCC)CCC[N+](C)(C)CCCCCCCCCCCC
1 µM | 1 µM | 2 µM | 4 µM | CCCCCCCCCCCC[N+](C)(C)CCCN(C)CCC[N+](C)(C)CCCCCCCCCCCC
1 µM | 2 µM | 1 µM | 2 µM | CCCCCCCCCCCC[N+](C)(C)CCCCC[N+](C)(C)CCCCCCCCCCCC
1 µM | 1 µM | 1 µM | 2 µM | CCCCCCCCCCCC[N+](C)(C)CCC[N+](C)(CCCC)CCC[N+](C)(C)CCCCCCCCCCCC
1 µM | 1 µM | 1 µM | 2 µM | CCCCCCCCCCCC[N+](C)(C)CCC[N+](C)(CCC[N+](C)(C)CCCCCCCCCCCC)Cc1ccccc1
1 µM | 1 µM | 1 µM | 4 µM | CCCCCCCCCCCC[N+](C)(C)CCN(C)CCN(C)CC[N+](C)(C)CCCCCCCCCCCC
1 µM | 1 µM | 1 µM | 2 µM | C=CC[N+](C)(CC[N+](C)(C)CCCCCCCCCCCC)CC[N+](C)(CC=C)CC[N+](C)(C)CCCCCCCCCCCC (configuration not stated)
